pIC50: −log10 of the molar value.
biological target: T1, human IDO1 (Homo sapiens, UniProt P14902); experiment: IDO inhibition assay in human IDO1/HEK293 cells (IDO1 HEK Human); type: cell-based; conditions: HEK293 cells stably expressing human IDO1; 20 hours incubation; absorbance at 490 nm after Ehrlich reagent
T1 construct: expressed in transfected cells
Description: HEK293 cells were transfected with a pCDNA-based mammalian expression vector harboring human IDO1 cDNA (NM 002164.2) by electroporation. They were cultured in medium (DMEM with 10% FBS) containing 1 mg/ml G418 for two weeks. Clones of HEK293 cells that stably expressed human IDO1 protein were selected and expanded for IDO inhibition assay.
The human IDO1/HEK293 cells were seeded at 10,000 cells per 50 μL per well with RPMI/phenol red free media contains 10% FBS in a 384-well black wall clear bottom tissue culture plate (Matrix Technologies LLC) 100 nL of certain concentration of compound was then added to each well using ECHO liquid handling systems. The cells were incubated for 20 hours in 37° C. incubator with 5% CO2.
The compound treatments were stopped by adding trichloroacetic acid (Sigma-Aldrich) to a final concentration at 0.2%. The cell plate was further incubated at 50° C. for 30 minute. The equal volume supernatant (20 μL) and 0.2% (w/v) Ehrlich reagent (4-dimethylaminobenzaldehyde, Sigma-Aldrich) in glacial acetic acid were mixed in a new clear bottom 384-well plate. This plate was then incubated at RT for 30 minute. The absorbance at 490 nm was measured on Envision plate reader.
Compound IC50 values were calculated using the counts of 500 nM of a reference standard treatment as one hundred percent inhibition, and counts of no compound but DMSO treatment as zero percent inhibition.

T1 sequence (P14902 whole entry): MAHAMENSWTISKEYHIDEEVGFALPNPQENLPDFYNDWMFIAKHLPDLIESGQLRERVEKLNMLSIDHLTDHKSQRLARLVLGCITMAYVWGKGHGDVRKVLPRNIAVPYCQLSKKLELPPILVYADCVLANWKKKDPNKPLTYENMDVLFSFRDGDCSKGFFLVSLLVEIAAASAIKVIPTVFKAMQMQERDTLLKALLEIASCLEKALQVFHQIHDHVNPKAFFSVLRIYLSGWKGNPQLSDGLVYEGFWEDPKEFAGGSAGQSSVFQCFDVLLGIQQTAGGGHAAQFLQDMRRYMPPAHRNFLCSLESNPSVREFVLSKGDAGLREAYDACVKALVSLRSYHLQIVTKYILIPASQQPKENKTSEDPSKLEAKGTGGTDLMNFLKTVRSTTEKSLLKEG

Row | SMILES | pIC50
1 | Cc1ccc(NC(=O)Nc2cc(-c3ccccc3C(=O)O)cc3c2OC(C)(C)C3c2ccccc2)cc1 (racemic) [Example 124, (±)-2-(2,2-Dimethyl-3-phenyl-7-(3-(p-tolyl)ureido)-2,3-dihydrobenzofuran-5-yl) benzoic acid] | 7.11
2 | CC1(C)Oc2c(NC(=O)Nc3ccccc3F)cc(-c3ccccc3-c3nnn[nH]3)cc2C1c1ccccc1 (racemic) [Example 125, (±)-1-(5-(2-(1H-Tetrazol-5-yl)phenyl)-2,2-dimethyl-3-phenyl-2,3-dihydrobenzofuran-7-yl)-3-(2-fluorophenyl)urea] | 7.04
3 | CC1(C)Oc2c(NC(=O)Nc3ccccc3F)cc(-c3ccccc3C(=O)O)cc2C1c1ccccc1 (racemic) [Example 126, (±)-2-(7-(3-(2-Fluorophenyl)ureido)-2,2-dimethyl-3-phenyl-2,3-dihydrobenzofuran-5-yl)benzoic acid] | 6.51
4 | CC1(C)Oc2c(NC(=O)Nc3ccc(C(F)(F)F)nc3)cc(-c3ccccc3-c3nnn[nH]3)cc2C1c1ccccc1 (racemic) [Example 127, (±)-1-(5-(2-(1H-Tetrazol-5-yl)phenyl)-2,2-dimethyl-3-phenyl-2,3-dihydrobenzofuran-7-yl)-3-(6-(trifluoromethyl)pyridin-3-yl)urea] | 5.68
5 | CC1(C)Oc2c(NC(=O)Nc3ccc(C(F)(F)F)nc3)cc(-c3ccccc3C(=O)O)cc2C1c1ccccc1 (racemic) [Example 128, (±)-2-(2,2-Dimethyl-3-phenyl-7-(3-(6-(trifluoromethyl)pyridin-3-yl)ureido)-2,3-dihydrobenzofuran-5-yl)benzoic acid] | 5.64
6 | Cc1ccc(NC(=O)Nc2cc(-c3cc(F)ccc3C(=O)O)cc3c2O[C@@H](C)[C@H]3c2ccccc2)cc1 (relative stereo) [Example 114, rel-4-fluoro-2-((2R,3R)-2-methyl-3-phenyl-7-(3-(p-tolyl)ureido)-2,3-dihydrobenzofuran-5-yl)benzoic acid] | 5.89
7 | Cc1ccc(NC(=O)Nc2cc(-c3cc(F)ccc3C(=O)O)cc3c2O[C@H](C)[C@H]3c2ccccc2)cc1 (relative stereo) [Example 116, rel-4-fluoro-2-((2R,3S)-2-methyl-3-phenyl-7-(3-(p-tolyl)ureido)-2,3-dihydrobenzofuran-5-yl)benzoic acid] | 6.90
8 | Cc1ccc(NC(=O)Nc2cc(-c3cc(F)ccc3C(=O)O)cc3c2O[C@@H](C)[C@H]3CCC(F)(F)F)cc1 (relative stereo) [Example 117, rel-4-fluoro-2-((2R,3R)-2-methyl-7-(3-(p-tolyl)ureido)-3-(3,3,3-trifluoropropyl)-2,3-dihydrobenzofuran-5-yl)benzoic acid] | 5.60

The next lines start with the values.

Row | pIC50 | SMILES
9 | 7.67 | Cc1ccc(NC(=O)Nc2cc(-c3ccccc3-c3nnn[nH]3)cc3c2OCCC3c2ccccc2)cc1 (racemic) [Example 132, (+/−)-1-(6-(2-(2H-tetrazol-5-yl)phenyl)-4-phenylchroman-8-yl)-3-(p-tolyl)urea]
10 | 7.11 | Cc1ccc(NC(=O)Nc2cc(-c3ccccc3-c3nnn[nH]3)cc3c2O[C@@H](C)[C@H]3c2ccccc2)cc1 (relative stereo) [Example 113, rel-1-((2R,3R)-5-(2-(2H-tetrazol-5-yl)phenyl)-2-methyl-3-phenyl-2,3-dihydrobenzofuran-7-yl)-3-(p-tolyl)urea]
11 | 7.55 | Cc1ccc(NC(=O)Nc2cc(-c3ccccc3-c3nnn[nH]3)cc3c2O[C@H](C)[C@H]3c2ccccc2)cc1 (relative stereo) [Example 115, rel-1-((2R,3 S)-5-(2-(1H-tetrazol-5-yl)phenyl)-2-methyl-3-phenyl-2,3-dihydrobenzofuran-7-yl)-3-(p-tolyl)urea]
12 | 7.64 | Cc1ccc(NC(=O)Nc2cc(-c3ccccc3-c3nnn[nH]3)cc3c2O[C@@H](C)[C@@H]3CCC(F)(F)F)cc1 (relative stereo) [Example 118, rel-1-((2R,3S)-5-(2-(2H-tetrazol-5-yl)phenyl)-2-methyl-3-(3,3,3-trifluoropropyl)-2,3-dihydrobenzofuran-7-yl)-3-(p-tolyl)urea]

Source: patent publication US12145927B2 (BRISTOL-MYERS SQUIBB COMPANY, priority 2018, dated 2024)
